Drawing on patent publication US10174052B2, “Quinuclidine compounds as α-7 nicotinic acetylcholine receptor ligands” (BRISTOL-MYERS SQUIBB COMPANY, priority 2014, dated 2019), this text covers EC50 for 34 molecules.

pEC50: −log10 of the molar value. Where two headings read alike, the source gives them in different places. Some results are limits rather than exact numbers.

The target of the test is T1, α7 nicotinic ACh receptor ion channel expressed in mammalian HEK 293 cells (Rattus norvegicus, UniProt Q05941).
T1 construct: expressed in transfected cells
Description: Ca2+-sensitive fluorescence-based assay for α7 nicotinic acetylcholine receptor channel function (FLIPR), agonist activity. The class given is cell-based. To be noted: for EC50: HEK 293 cells, Ca2+ flux. How it is done: II) A Ca^2+-Sensitive, Fluorescence-Based Assay α-7 for Nicotinic Acetylcholine Receptor Channel Function in Mammalian Cells (“FLIPR”).
Lead compounds are evaluated for agonist activity at the α7 nicotinic ACh receptor ion channel expressed in mammalian HEK 293 cells. Agonist potency and efficacy values are determined from kinetic fluorescence Ca^2+ influx measurements made using a 384 well FLIPR (Fluorescence Image Plate Reader). The utility of fluorescent indicators for measuring changes in intracellular divalent cation concentrations, particularly Ca^2+, for drug discovery endeavors is well documented (Rudiger, R., et al., Nature Reviews, 2003, 4:579-586; Gonzalez J. E., et al., Receptors and Channels, 2002, 8:283-295). In this assay, channel expressing HEK cell lines seeded in 384 well assay plates are loaded with a membrane permeant fluorescent Ca^2+ indicator dye, whose 510 nm green emission signal increases in response to elevation of intracellular Ca^2+ concentration. The basal fluorescence from the cells is monitored in real time, followed by the acute addition of test compounds. If the compound is an agonist at any of the non-selective cation channels, the latter open and allow the movement of extracellular Ca^2+ ions into the cell cytoplasm, where they bind to the Ca^2+ indicator dye, and produce an increase in fluorescence output signal, which is detected by a cooled CCD imaging camera.
Reagents: The acetomethoxy (AM) ester of the Ca^2+ indicator dye Fluo-4 was obtained from InVitrogen, (Carlsbad, Calif.). Acetylcholine and all buffer constituents were purchased from Sigma Chemical Company, St. Louis, Mo. G418 and Minimal Essential Medium were purchased from InVitrogen Life Technologies, Carlsbad, Calif. Fetal bovine serum was purchased from (InVitrogen, Carlsbad, Calif.).
HEK-293 cells were grown in Minimal Essential Medium containing 10% (v/v) fetal bovine serum at 37° C. in a 5% CO2 incubator. HEK-293 cells stably expressing the ion channels were grown in the same medium with the addition of 500 μg/ml G418.
HEK-293 cells expressing the ion channels of interest were plated in 384 well, black-walled, clear-bottomed, poly-D-lysine coated plates at a density of ˜20,000 cells/well in 20 μl of Minimal Essential Medium containing 10% (v/v) fetal bovine serum and incubated for 2 days at 29° C. in a 5% CO2 incubator. Prior to assay, cells were loaded with the Fluo-4 AM ester. Cell loading was accomplished by removing the culture medium and replacing it with 30 μl/well of the AM ester of the dye (5 μM) mixed with Hanks Balanced Salt Solution (#14175-095) containing 20 mM HEPES, 2.5 mM probenecid, 0.5 mM CaCl2, 1 mM MgCl2 and 10 μM atropine. Dye loading was allowed to proceed for 90 minutes at room temperature at which time the dye loading solution was removed and replaced with 40 μl/well of Hanks buffer. Cells loaded with dye were loaded onto a FLIPR384 (Molecular Devices, Sunnyvale, Calif.). Fluo-4 dye was excited using the 488 nm line of an argon laser. Emission was filtered using a 540+/−30 nm bandpass filter. For evaluation of the effects of test compounds using the Ca^2+ flux assay, compounds to be tested were provided in assay ready plates. For nicotinic receptor ion channel expressing cells, the assay was initiated by the addition of 20 μl/well of Hanks buffer containing test compounds. For all assays, data were collected at 1 Hz for 10 seconds (baseline), at which time the compound containing stimulus buffers are added, and further measurements collected at 0.33 Hz for 3 min.
The statistical robustness of the nicotinic receptor Ca^2+ flux assays is determined from blanks and totals wells. The totals wells define maximal channel activation for each compound test plate (Maximum efficacious dose of acetylcholine), and the blanks wells which contain matched DMSO only, define zero channel activation. […]
(A change in cytosolic calcium serves as a functional read-out for many receptors and channels.)

[1] abbreviates: FLIPR α7 (EC50, nM), agonist potency.
Setting [2] is: FLIPR α7 activity rating (EC50, nM), class rating of EC50.

T1 sequence (Q05941 23-502): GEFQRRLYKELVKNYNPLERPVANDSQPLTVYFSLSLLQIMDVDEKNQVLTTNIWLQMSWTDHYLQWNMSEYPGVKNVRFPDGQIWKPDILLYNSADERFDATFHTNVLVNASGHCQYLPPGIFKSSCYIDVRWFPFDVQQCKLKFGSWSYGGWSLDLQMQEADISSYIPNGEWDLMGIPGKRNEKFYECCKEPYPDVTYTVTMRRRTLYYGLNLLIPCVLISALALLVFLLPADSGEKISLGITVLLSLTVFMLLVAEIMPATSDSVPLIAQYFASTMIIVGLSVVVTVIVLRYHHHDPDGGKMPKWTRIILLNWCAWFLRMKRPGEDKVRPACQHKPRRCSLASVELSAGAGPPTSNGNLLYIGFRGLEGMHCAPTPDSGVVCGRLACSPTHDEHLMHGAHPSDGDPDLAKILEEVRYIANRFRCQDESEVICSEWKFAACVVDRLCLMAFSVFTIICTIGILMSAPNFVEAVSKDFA

In the case of `Cc1nc2n(c1Br)CC1(CN3CCC1CC3)O2` (racemic) [Example 3a, 5-Bromo-6-methyl-3H-1′-azaspiro[imidazo[2,1-b]oxazole-2,3′-bicyclo[2.2.2]octane]], the EC50 (usually the concentration giving half of the maximal effect) by setting is: under setting [1], 36.1 nM; under setting [2], less than 100 nM.
For `Cc1c(Br)nc2n1CC1(CN3CCC1CC3)O2` (racemic) [Example 3b, 6-Bromo-5-methyl-3H-1′-azaspiro[imidazo[2,1-b]oxazole-2,3′-bicyclo[2.2.2]octane]], in that order: 71.4 nM and less than 100 nM.
For `Brc1nc2n(n1)CC1(CN3CCC1CC3)O2` (racemic) [Example 15, 2-Bromo-6H-1′-azaspiro[oxazolo[3,2-b][1,2,4]triazole-5,3′-bicyclo[2.2.2]octane]], in that order: 362 nM and 100 to 1000 nM.
For `Clc1nc2n(n1)CC1(CN3CCC1CC3)O2` (racemic) [Example 16, 2-Chloro-6H-1′-azaspiro[oxazolo[3,2-b][1,2,4]triazole-5,3′-bicyclo[2.2.2]octane]], in that order: 174 nM and 100 to 1000 nM.
`c1nc2n(n1)CC1(CN3CCC1CC3)O2` (racemic) [Example 17, 6H-1′-Azaspiro[oxazolo[3,2-b][1,2,4]triazole-5,3′-bicyclo[2.2.2]octane]] had an EC50 under setting [1] of 321 nM and an EC50 under setting [2] of 100 to 1000 nM.
Turning to `Cc1nc2c(cc1Br)nc1n2CC2(CN3CCC2CC3)O1` (racemic) [Example 18, 7-Bromo-6-methyl-3H-1′-azaspiro[oxazolo[2′,3′:2,3]imidazo[4,5-b]pyridine-2,3′-bicyclo[2.2.2]octane]], the EC50 runs as follows: under setting [1], 967 nM; under setting [2], 100 to 1000 nM.
Consider `Brc1cnc2c(c1)nc1n2CC2(CN3CCC2CC3)O1` (racemic) [Example 19, 7-Bromo-3H-1′-azaspiro[oxazolo[2′,3′:2,3]imidazo[4,5-b]pyridine-2,3′-bicyclo[2.2.2]octane]], for which it took 49 nM to reach a half-maximal effect under setting [1] (EC50) and the EC50 under setting [2] was less than 100 nM.
For `Clc1cnc2c(c1)nc1n2CC2(CN3CCC2CC3)O1` (racemic) [Example 20, 7-Chloro-3H-1′-azaspiro[oxazolo[2′,3′:2,3]imidazo[4,5-b]pyridine-2,3′-bicyclo[2.2.2]octane]], in that order: 66 nM and less than 100 nM.
For `Brc1nc2n(c1Br)C[C@]1(CN3CCC1CC3)O2` (single isomer, unassigned) [Example 1a], in that order: 5690 nM and 1000 to 100000 nM.
For `Brc1nc2n(c1Br)C[C@@]1(CN3CCC1CC3)O2` (single isomer, unassigned) [Example 1b], in that order: 19.6 nM and less than 100 nM.
As for `c1ccc2c(c1)nc1n2C[C@@]2(CN3CCC2CC3)O1` (single isomer, unassigned) [Example 4a], the EC50 runs as follows: under setting [1], 13.6 nM; under setting [2], less than 100 nM.
As to `c1ccc2c(c1)nc1n2C[C@]2(CN3CCC2CC3)O1` (single isomer, unassigned) [Example 4b], the EC50 runs as follows: under setting [1], 6660 nM; under setting [2], 1000 to 100000 nM.
As for `Cc1cc2nc3n(c2cc1C)C[C@@]1(CN2CCC1CC2)O3` (single isomer, unassigned) [Example 5a], the EC50 is, setting by setting: under setting [1], 65.3 nM; under setting [2], less than 100 nM.
With `Cc1cc2nc3n(c2cc1C)C[C@]1(CN2CCC1CC2)O3` (single isomer, unassigned) [Example 5b], the EC50 reads like this: under setting [1], more than 100000 nM; under setting [2], more than 1e+06 nM.
For `COc1ccc2c(c1)nc1n2C[C@]2(CN3CCC2CC3)O1` (single isomer, unassigned) [Example 6a] the same measures were 1430 nM and 1000 to 100000 nM.
Take `COc1ccc2c(c1)nc1n2C[C@@]2(CN3CCC2CC3)O1` (single isomer, unassigned) [Example 6b]: the EC50 is 10.3 nM under setting [1] and less than 100 nM under setting [2].
For `Cc1ccc2nc3n(c2c1)C[C@@]1(CN2CCC1CC2)O3` (single isomer, unassigned) [Example 7a], in that order: 35 nM and less than 100 nM.
For `Cc1ccc2c(c1)nc1n2C[C@@]2(CN3CCC2CC3)O1` (single isomer, unassigned) [Example 7b] the same measures were 5.1 nM and less than 100 nM.
For `FC(F)(F)c1ccc2c(c1)nc1n2C[C@@]2(CN3CCC2CC3)O1` (single isomer, unassigned) [Example 8a] the same measures were 4.7 nM and less than 100 nM.
In the case of `FC(F)(F)c1ccc2nc3n(c2c1)C[C@@]1(CN2CCC1CC2)O3` (single isomer, unassigned) [Example 8b], the pEC50 (usually the negative decadic logarithm of the EC50, by convention in mol/L) is 5.14. The molecule also gave an EC50 under setting [2] of 1000 to 100000 nM.
For `FC(F)(F)c1ccc2nc3n(c2c1)C[C@]1(CN2CCC1CC2)O3` (single isomer, unassigned) [Example 8c], the pEC50 is less than 4.00. The same molecule yielded an EC50 under setting [2] of more than 1e+06 nM.
As to `FC(F)(F)c1ccc2c(c1)nc1n2C[C@]2(CN3CCC2CC3)O1` (single isomer, unassigned) [Example 8d], the EC50 was 1330 nM under setting [1] and 1000 to 100000 nM under setting [2].
For `Clc1cccc2c1nc1n2C[C@]2(CN3CCC2CC3)O1` (single isomer, unassigned) [Example 9a] the same measures were 12100 nM and 1000 to 100000 nM.
For `Clc1cccc2c1nc1n2C[C@@]2(CN3CCC2CC3)O1` (single isomer, unassigned) [Example 9b], in that order: 24.6 nM and less than 100 nM.
For `Clc1cccc2nc3n(c12)C[C@@]1(CN2CCC1CC2)O3` (single isomer, unassigned) [Example 9c] the same measures were 347 nM and 100 to 1000 nM.
Take `Clc1cccc2nc3n(c12)C[C@]1(CN2CCC1CC2)O3` (single isomer, unassigned) [Example 9d]: the EC50 was 3950 nM under setting [1] and 1000 to 100000 nM under setting [2].
For `Cc1cccc2c1nc1n2C[C@]2(CN3CCC2CC3)O1` (single isomer, unassigned) [Example 10a], in that order: 263 nM and 100 to 1000 nM.
For `Cc1cccc2c1nc1n2C[C@@]2(CN3CCC2CC3)O1` (single isomer, unassigned) [Example 10b] the same measures were 9.1 nM and less than 100 nM.
For `FC(F)(F)c1cccc2c1nc1n2C[C@]2(CN3CCC2CC3)O1` (single isomer, unassigned) [Example 11a] the same measures were 32500 nM and 1000 to 100000 nM.
Regarding `FC(F)(F)c1cccc2c1nc1n2C[C@@]2(CN3CCC2CC3)O1` (single isomer, unassigned) [Example 11b], the EC50 was 22 nM under setting [1] and less than 100 nM under setting [2].
For `COc1ccc(-c2cccc3c2nc2n3C[C@]3(CN4CCC3CC4)O2)cc1` (single isomer, unassigned) [Example 12a] the same measures were more than 100000 nM and more than 1e+06 nM.
For `COc1ccc(-c2cccc3c2nc2n3C[C@@]3(CN4CCC3CC4)O2)cc1` (single isomer, unassigned) [Example 12b], in that order: 28 nM and less than 100 nM.
For `c1cncc(-c2ccc3c(c2)nc2n3C[C@]3(CN4CCC3CC4)O2)c1` (single isomer, unassigned) [Example 13a], in that order: 2990 nM and 1000 to 100000 nM.
`c1cncc(-c2ccc3c(c2)nc2n3C[C@@]3(CN4CCC3CC4)O2)c1` (single isomer, unassigned) [Example 13b] had an EC50 under setting [1] of 634 nM and an EC50 under setting [2] of 100 to 1000 nM.
